# From US20250011881A1, “MYC-HSF1 DUAL AMPLIFICATION AS A BIOMARKER FOR CANCER TREATMENT” (The Trustees of Indiana University, priority 2023, published 2025)
# Where “and” joins values, the source holds several entries; their conditions need not be identical. Equal values may be shown once. Where a name gives a salt, the structure may show the parent alone.
# Test system: ovarian cancer cells with (OVCAR8, OVCAR4) or without (OVSAHO, CAOV3) MYC-HSF1 amplification
# Assay: Epigenetic inhibitor drug screen, cell viability (Cell Titer Blue)
# Type: cell-based
# Conditions: not given
row,SMILES,Non Amp - AMP (POC) 10 uM
1,"CCCCCCCCCCCCC/C=C/[C@@H](O)[C@@H](N)CO [D-erythro-Sphingosine (synthetic), D-erythro-Sphingosine]",2.713 POC
2,O=C(O)CCNc1cc(N2CCc3ccccc3CC2)nc(-c2ccccn2)n1 [GSK J1],1.38 POC
3,CCC(=O)CCCCC[C@@H]1NC(=O)[C@H]2CCCCN2C(=O)[C@H]([C@@H](C)CC)NC(=O)[C@H](Cc2cn(OC)c3ccccc23)NC1=O [Apicidin],45.97 POC
4,O=C(Nc1ccc(CN2CCOCC2)cc1)c1ccc(-c2cccc(Cl)c2)o1 [CID 2011756],21.79 POC
5,NC(=O)c1ncn([C@@H]2O[C@H](CO)[C@@H](O)[C@H]2O)c1N [AICAR],11.27 POC
6,NC(=O)c1cccc2cn(-c3ccc([C@@H]4CCCNC4)cc3)nc12 [MK-4827],−0.7556 POC
7,"O=C(O)CNC(=O)C1C(=O)N(C2CCCCC2)C(=O)N(C2CCCCC2)C1=O [Daprodustat(GSK1278863), Daprodustat]",0.9715 POC
8,CC(C)(C)c1nc2c3cc[nH]c(=O)c3c3cc(F)ccc3c2[nH]1 [Pyridone 6],−0.4008 POC

# Same assay, conditions: 10 uM, 48 hrs; average relative cell viability (vs 1% DMSO) of non-amplified cells (OVSAHO, CAOV3) minus that of MYC-HSF1 amplified cells (OVCAR8, OVCAR4); positive = greater response in amplified cells
row,SMILES,Non Amp - AMP (POC) 10 uM
1,O=C1Nc2cc(Br)ccc2/C1=C1/Nc2ccccc2/C1=N\O [GSK-3 Inhibitor IX (BIO)],−1.008 POC
2,CN(C)c1ccc(-c2nc3ncc(Cl)c(N4CCN(CC(=O)Nc5nccs5)CC4)c3[nH]2)cc1 [CCT129202],2.662 POC
3,"Cc1cc(Nc2cc(N3CCN(C)CC3)nc(Sc3ccc(NC(=O)C4CC4)cc3)n2)[nH]n1 [VX-680 (MK-0457, Tozasertib), Tozasertib]",−20.25 POC
4,C#CCC(CCCCCC)C(=O)O (stereo not drawn) [2-hexyl-4-Pentynoic Acid],2.599 POC
5,CN(C)CC(=O)Nc1ccc2[nH]c(=O)c3ccccc3c2c1.Cl [PJ34 hydrochloride],3.696 POC
6,"CC[C@@](C)(Nc1ccnc(-c2c[nH]c3ncccc23)n1)C(=O)NCC(F)(F)F [Decernotinib(VX-509), Decernotinib]",7.322 POC
7,O=C(/C=C/c1cccc(C(=O)NO)c1)NO [CBHA],37.53 POC
8,CN1CCN(c2cccc(Nc3nc4c(-c5ccc(S(C)(=O)=O)cc5)cccn4n3)c2)CC1 [CEP-33779],15.1 POC
9,CN(C)c1ccc(C(=O)NCCCCCCC(=O)NO)cc1 [M344],22.65 POC
10,COc1cc2c(cc1OC)C(=O)C(CC1CCN(Cc3ccccc3)CC1)C2 (stereo not drawn) [Donepezil HCl],−4.516 POC
11,Cc1nc(Nc2cnn(C3CCNCC3)c2)nc2c1N(C)C(=O)c1cc3ccccc3cc1N2C [HTH-01-015],−3.924 POC
12,Cc1cc(C)c(CNC(=O)c2cc(-c3ccc(N4CCN(C)CC4)nc3)cc3c2c(C)cn3C(C)C)c(=O)[nH]1 [GSK503],−0.09843 POC
13,COc1cc2c(NC3CCN(C(C)C)CC3)nc(C3CCCCC3)nc2cc1OCCCN1CCCC1 [UNC0638],−12.13 POC
14,O=c1[nH]cnc2ccccc12 [4-HQN],−1.37 POC
15,CCCCCCCCCCCCCC(=S)NCCCC[C@H](NC(=O)OCc1ccccc1)C(=O)Nc1ccccc1 [Thiomyristoyl],−0.8381 POC
16,"CCOC(=O)NNc1nncc2ccccc12 [Todralazine (hydrochloride), Todralazine]",13.07 POC

row,SMILES,Non Amp - AMP (POC) 10 uM
1,C[C@@H]1O[C@@H](CC(=O)O)CC2=C1C(=O)c1c(O)cccc1C2=O [Nanaomycin A],2.594 POC
2,C[C@@H]1O[C@@H](O[C@H]2[C@H](O[C@H]3[C@H](O[C@H]4CC[C@]5(C)[C@H]6CC=C7[C@@H]8CC(C)(C)CC[C@]8(C(=O)O)CC[C@@]7(C)[C@]6(C)CC[C@H]5C4(C)C)OC[C@H](O)[C@@H]3O)O[C@H](CO)[C@@H](O)[C@@H]2O)[C@H](O)[C@H](O)[C@H]1O [Raddeanin A],2.609 POC
3,CCn1c(C(=O)N(C2CC2)C2CC2)cc2c3c(ncn3C)c(Nc3cc(C)n(C)n3)nc21 [BMS-911543],1.85 POC
4,O=C(c1cccc(Cl)c1F)N1CCN(Cc2cccc(Nc3nccs3)n2)CC1 [MK-8745],10.66 POC
5,O=C(CCl)Nc1ccc(S(=O)(=O)c2ccc(NC(=O)CCl)cc2)cc1 [TC-E 5003],0.7453 POC
6,O=C(COc1cccc2c(=O)[nH]ccc12)c1ccccc1 [UPF 1069],−6.052 POC
7,O=C(CCCCCCC(=O)Nc1ccc([C@H]2O[C@@H](CSc3nc(-c4ccccc4)c(-c4ccccc4)o3)C[C@@H](c3ccc(CO)cc3)O2)cc1)NO [Tubacin],−15.59 POC
8,CCCCCCCc1ccc(CCc2cccc(O)c2C(=O)O)cc1 [MG 149],−0.4614 POC
9,Cc1cnc(Nc2ccc(OCCN3CCCC3)cc2)nc1Nc1cccc(S(=O)(=O)NC(C)(C)C)c1 [TG101348 (SAR302503)],−1.346 POC
10,Cc1ccc2nc(NCCN)c3ncc(C)n3c2c1 [BMS-345541 (free base)],19.27 POC
11,Cl.O=C(Nc1ccccc1-c1cn2c(CN3CCNCC3)csc2n1)c1cnc2ccccc2n1 [SRT1720 HCl],4.809 POC
12,O=C(Cc1ccccc1)Nc1ccc2oc(-c3ccc(Cl)cc3Cl)nc2c1 [CAY10722],−11.2 POC
13,CC(C)N(CCC(=O)c1ccc2ccccc2c1)Cc1ccccc1 [ZM 39923 HCl],−4.611 POC
14,O=C(CCCCCCC(=O)Nc1cccnc1)NO [Pyroxamide],60.34 POC
15,CN1CCN(c2ccc(-c3cccc(CN4CCOCC4)c3)cc2NC(=O)c2c[nH]c(=O)cc2C(F)(F)F)CC1 [OICR-9429],12.58 POC

# Same assay, conditions: 10 uM, 48 hrs; average relative cell viability (vs 1% DMSO) of non-amplified cells (OVSAHO, CAOV3) minus that of MYC-HSF1 amplified cells (OVCAR8, OVCAR4); positive = greater response in amplified cells; 10 µM
row,SMILES,Non Amp - AMP (POC) 10 uM
1,CCOC(=O)CCNc1cc(N2CCc3ccccc3CC2)nc(-c2ccccn2)n1.Cl [GSK J4 HCl],−10.21 POC
2,COc1cc2c(cc1-c1c(C)noc1C)ncc1[nH]c(=O)n([C@H](C)c3ccccn3)c12 [I-BET151],21.72 POC
3,"CNCc1ccc(-c2[nH]c3cc(F)cc4c3c2CCNC4=O)cc1 [Rucaparib (AG-014699, PF-01367338), Rucaparib]",0.4948 POC
4,"CNCc1ccc(-c2[nH]c3cc(F)cc4c3c2CCNC4=O)cc1 [Rucaparib (free base), Rucaparib]",8.811 POC
5,Cl.O=C([C@@H](Cc1cccc(C(F)(F)F)c1)NS(=O)(=O)c1cc(F)c2c(c1)CCNC2)N1CCCC1 [PFI-2 (hydrochloride)],2.189 POC
6,Nc1ccn([C@@H]2O[C@H](CO)[C@@H](O)C2(F)F)c(=O)n1 [Gemcitabine],28.61 POC
7,CCNC(=O)C[C@@H]1N=C(c2ccc(Cl)cc2)c2cc(OC)ccc2-n2c(C)nnc21 [I-BET-762],5.52 POC
8,O=C(Nc1ccc2c(O)cc(S(=O)(=O)O)cc2c1)Nc1ccc2c(O)cc(S(=O)(=O)O)cc2c1 [AMI-1],19.64 POC and 18.34 POC
9,COc1cc2c(cc1OCCCN1CCCC1)N=C(N)C21CCC1 [A-366],11.91 POC
10,Cn1cc(CNCC2CCN(c3ncc(C(=O)NO)cn3)CC2)c2ccccc21 [JNJ-26481585],38.34 POC and 26.25 POC
11,CC[C@@H]1C(=O)N(C)c2cnc(Nc3ccc(C(=O)NC4CCN(C)CC4)cc3OC)nc2N1C1CCCC1 [BI-2536],15.69 POC
12,N#C/C(=C\c1ccc(-c2cc(Cl)ccc2Cl)o1)C(=O)Nc1cccc2ncccc12 [AGK 2],24.17 POC
13,"O=C(O)c1ccnc(C(=O)O)c1 [2,4-Pyridinedicarboxylic Acid]",−1.887 POC
14,CCCCCCCCCCCCCCCc1cccc(O)c1C(=O)O [Anacardic acid],17.46 POC
15,CCCc1cc2c(N3CCN(C4=NCC(C)(C)S4)CC3)ncnc2s1 [MI-2 (hydrochloride)],6.017 POC
16,"CCN(CC)Cc1ccc2cc(COC(=O)Nc3ccc(C(=O)NO)cc3)ccc2c1 [ITF 2357, Givinostat]",40.35 POC

# Same assay, conditions: 10 uM, 48 hrs; average relative cell viability (vs 1% DMSO) of non-amplified cells (OVSAHO, CAOV3) minus that of MYC-HSF1 amplified cells (OVCAR8, OVCAR4); positive = greater response in amplified cells; listed as A 366, 10 µM
row,SMILES,Non Amp - AMP (POC) 10 uM
1,COc1cc2c(cc1OCCCN1CCCC1)N=C(N)C21CCC1 [A-366],3.68 POC

# Same assay, conditions: 10 uM, 48 hrs; average relative cell viability (vs 1% DMSO) of non-amplified cells (OVSAHO, CAOV3) minus that of MYC-HSF1 amplified cells (OVCAR8, OVCAR4); positive = greater response in amplified cells; listed as AGK2, 10 µM
row,SMILES,Non Amp - AMP (POC) 10 uM
1,N#C/C(=C\c1ccc(-c2cc(Cl)ccc2Cl)o1)C(=O)Nc1cccc2ncccc12 [AGK 2],19.96 POC

# Same assay, conditions: 10 uM, 48 hrs; average relative cell viability (vs 1% DMSO) of non-amplified cells (OVSAHO, CAOV3) minus that of MYC-HSF1 amplified cells (OVCAR8, OVCAR4); positive = greater response in amplified cells; listed as Anacardic Acid, 10 µM
row,SMILES,Non Amp - AMP (POC) 10 uM
1,CCCCCCCCCCCCCCCc1cccc(O)c1C(=O)O [Anacardic acid],5.093 POC

# Same assay, conditions: 10 uM, 48 hrs; average relative cell viability (vs 1% DMSO) of non-amplified cells (OVSAHO, CAOV3) minus that of MYC-HSF1 amplified cells (OVCAR8, OVCAR4); positive = greater response in amplified cells; listed as BI 2536, 10 µM
row,SMILES,Non Amp - AMP (POC) 10 uM
1,CC[C@@H]1C(=O)N(C)c2cnc(Nc3ccc(C(=O)NC4CCN(C)CC4)cc3OC)nc2N1C1CCCC1 [BI-2536],−3.682 POC

# Same assay, conditions: 10 uM, 48 hrs; average relative cell viability (vs 1% DMSO) of non-amplified cells (OVSAHO, CAOV3) minus that of MYC-HSF1 amplified cells (OVCAR8, OVCAR4); positive = greater response in amplified cells; listed as GSK-J4 (hydrochloride), 10 µM
row,SMILES,Non Amp - AMP (POC) 10 uM
1,CCOC(=O)CCNc1cc(N2CCc3ccccc3CC2)nc(-c2ccccn2)n1.Cl [GSK J4 HCl],−13.06 POC

# Same assay, conditions: 10 uM, 48 hrs; average relative cell viability (vs 1% DMSO) of non-amplified cells (OVSAHO, CAOV3) minus that of MYC-HSF1 amplified cells (OVCAR8, OVCAR4); positive = greater response in amplified cells; listed as I-BET151 (GSK1210151A), 10 µM
row,SMILES,Non Amp - AMP (POC) 10 uM
1,COc1cc2c(cc1-c1c(C)noc1C)ncc1[nH]c(=O)n([C@H](C)c3ccccn3)c12 [I-BET151],3.072 POC

# Same assay, conditions: 10 uM, 48 hrs; average relative cell viability (vs 1% DMSO) of non-amplified cells (OVSAHO, CAOV3) minus that of MYC-HSF1 amplified cells (OVCAR8, OVCAR4); positive = greater response in amplified cells; listed as I-BET762, 10 µM
row,SMILES,Non Amp - AMP (POC) 10 uM
1,CCNC(=O)C[C@@H]1N=C(c2ccc(Cl)cc2)c2cc(OC)ccc2-n2c(C)nnc21 [I-BET-762],−1.572 POC

# Same assay, conditions: 10 uM, 48 hrs; average relative cell viability (vs 1% DMSO) of non-amplified cells (OVSAHO, CAOV3) minus that of MYC-HSF1 amplified cells (OVCAR8, OVCAR4); positive = greater response in amplified cells; listed as ITF2357 (Givinostat), 10 µM
row,SMILES,Non Amp - AMP (POC) 10 uM
1,"CCN(CC)Cc1ccc2cc(COC(=O)Nc3ccc(C(=O)NO)cc3)ccc2c1 [ITF 2357, Givinostat]",13.67 POC
